The results in this text go back to US20090097026A1, “COLOR MEASUREMENTS OF RECONSTITUTED TIGECYCLINE AND DEGRADANT THEREOF” (Wyeth, priority 2007, published 2009).

Data set [1] can be described thus: Color value of reconstituted tigecycline and tigecycline API spiked with Compound I. The format is physicochemical. As to conditions: spiked into reconstituted tigecycline and tigecycline API; visual observation. The protocol:
The spiking concentrations required to produce a clear color change in tigecycline (tigecycline for injection 50 mg/vial (lactose formulation)) was characterized using both a Hunterlab UltraScan XE color spectrophotometer and a quantitative HPLC method. The threshold for visual green color resulting from spiking with Compound I colored degradant was determined for each category of tigecycline samples. An excellent linear correlation (R>0.99) between the concentration of Compound I and the calculated color value is observed. The spiking of tigecycline with ca. 0.045 concentration Compound I results in observation of a slightly green color in the reconstituted tigecycline and tigecycline API. This green color is more pronounced at the higher Compound I concentration. Tables 1, 2, 3 and 4 summarize the calculated color values and HPLC results for tigecycline Registration stability batches (CR0040-50-01, CR0040-50-02, CR0040-50-03), validation stability batches (B41133, B41404, B41710) and API used in the validation stability batches (3000002665, 2000140691, 2000140693). As per the color methods employed the calculated color value is calculated from the measured CIEL*a*b* values using the equation below:
Calculated Color Value=2.19×L*+2.59×a*−0.48×b*
The samples were tested immediately after reconstitution according to the label directions (5.3 ml of 0.9% saline). […]

Data set [2] can be described thus: Stability / oxidative degradation observations. The format is physicochemical. The conditions noted are these: result in words. An excerpt: Compound I was isolated from forced degradation samples of tigecycline and is unstable. This blue compound was characterized by LC-MS/MS and NMR as an iminoquinone derivative of tigecycline, an oxidative degradant with a positive ionic formula of C29H38N5O10 formed when tigecycline is exposed to air for twenty-four hours. A linear correlation (R>0.99) between the concentration of Compound I and the calculated color value was discovered. In substantially pure form, Compound I is useful as a test standard for determining the concentration of Compound I in a sample of Tigecycline. Compound I may be obtained in substantially pure form from the compound Tygecycline according to the following method: Tygecycline is degraded at room temperature by dissolving it in water open to air and stirring for a few hours until the solution changes color from yellow/orange to dark green. […]
Compound I was studied by NMR spectroscopy as well. […] A highly intense singlet peak at δH 3.59 was assigned to methyl protons of the C-7 dimethyl amino group, and their associated carbons were detected at δC 47.1 in the HSQC spectrum. […]

`CN(C)c1c(O)c(C(N)=O)c(O)c(O)c1C[C@H]1C(C(=O)O)=C(O)C2=C(C(=[N+](C)C)C=C(NC(=O)CNC(C)(C)C)C2=O)[C@@H]1O` [Compound I]: the “concentration of Compound I that results in a slightly green color” value in data set [1] is recorded as “ca. 0.045”.
With `CN(C)c1cc(NC(=O)CNC(C)(C)C)c(O)c2c1C[C@H]1C[C@H]3[C@H](N(C)C)C(O)=C(C(N)=O)C(=O)[C@@]3(O)C(O)=C1C2=O` [tigecycline], the stability entry in data set [2] was “susceptible to oxidative degradation”.
